Results: patent US7572770B2, “Use of an interleukin 1 receptor antagonist and/or pyrrolidinedithiocarbamate for the treatment or prophylaxis of type 2 diabetes” (University of Zurich, priority 2002, dated 2009)

Columns and labels:
[1] = tested on: diabetes-prone Psammomys obesus; test: Diabetes-prone Psammomys obesus on high-energy diet treated with phlorizin; type: in vivo
Excerpt: Animals. Psammomys obesus of both sexes (age 2.0-3.5 months) from the diabetes-prone and diabetes-resistant lines of the Hebrew University colonies were obtained from Harlan (Jerusalem, Israel). After weaning, diabetes-prone Psammomys obesus were maintained on a low-energy diet containing 2.38 kcal/g (Koffolk, Petach Tikva, Israel) until the start of the experiments, whereas diabetes-resistant Psammomys obesus were maintained on a […] (Weizmann Institute, Rehovot, Israel) to identify animals that develop diabetes and exclude them from the study (˜30-40% of the animals in the diabetes-resistant colony). All non-fasted animals with random blood glucose concentrations <7.8 mmol/l (Glucometer Elite, Bayer Diagnostics, Elkart, Ind.) were considered nondiabetic. Diabetes-prone Psammomys obesus switched to a high-energy diet, received an injection of 0.4 g/kg phlorizin (Sigma) or solvent (40% propylene glycol) every 12 h and were killed after 8 days. Psammomys obesus were anesthetized with ketamine (Ketalar, Park-Davis, Gwent, U.K.) and exsanguinated by cardiac puncture. The pancreas was rapidly removed, and immersion-fixed in 10% phosphate-buffered formalin. The animal studies were approved by the Institutional Animal Care and Use Committee of the Hebrew University and the Hadassah Medical Organization.
Detection of IL-1β expressing β-cells. Pancreases from routine necropsies and pancreases from Psammomys obesus were immersion-fixed in formalin, followed by paraffin embedding. Sections were deparaffinized and rehydrated, and endogenous peroxidase blocked by submersion in 0.3% H2O2 for 15 min. Sections were then incubated in methanol for 4 min. After washing with PBS, cultured islets and isolated β-cells were fixed in 4% paraformaldehyde (30 min, room temperature) followed by permeabilisation with 0.5% triton X-100 (4 min, room temperature). Both tissue sections and cultured cells were double-labeled for IL-1β and insulin by 1 h exposure to 10% bovine serum albumin, followed by incubation (1 h, 37° C.) with mouse anti-IL-1β antibody (1:30 dilution, R&D Systems Inc.). Detection was performed using donkey anti-mouse Cy3 conjugated antibody (1:100 dilution, Jackson). Subsequently, specimens were incubated for 30 min at 37° C. with guinea pig anti-insulin antibody diluted 1:50 (Dako, Carpinteria, Calif.), followed by a 30 min incubation with a 1:20 dilution of fluorescein-conjugated rabbit anti-guinea pig antibody (Dako). For positive control of IL-1β staining, human mononuclear cells were isolated as described previously (37) and exposed for 2 h, 37° C. to 1 μg/ml lipopolysaccharide (Difco, Detroit, Ind.). […]

iNOS = iNOS expression in human islets; type: cell-based; conditions: 33 mM glucose or IL-1β alone, 44 hours
Description: Western blot analysis. Islets were cultured in a culture medium in non-adherent plastic dishes. One day after isolation, the medium was changed and groups of 200 islets were incubated for 44 hours in culture medium containing 5.5 or 33.3 mM glucose without or with 2 ng/ml IL-1β or 500 ng/ml IL-1Ra. At the end of the incubations, islets were washed in PBS, suspended in 50 μl sample buffer containing 125 mM Tris-HCl, pH 6.8, 4% SDS, 10% glycerol, 0.3% bromphenol blue, 1.8% β-mercaptoethanol and boiled for 5 min. Equivalent amounts of each treatment group were run on 15% SDS polyacrylamide gels. […] Intensity of bands was analyzed using Multianalyst™ (Bio Rad, Laboratories inc., Hercules, Calif.).
RNA extraction, RT-PCR and sequencing of RT-PCR product. […] The conditions of the PCR amplification for IL-1β and Fas were: denaturation 30 seconds at 94° C., annealing 30 seconds at 60° C. and elongation 30 seconds at 72° C., followed for real time PCR by quantification 5 seconds at 80° C., 45 cycles. […] For quantitative analysis, we used the Light Cycler quantitative PCR system (Roche, Basel, Switzerland) and performed quantitative PCR with a commercial kit (Light Cycler-DNA Master SYBR Green I; Roche). […]

human islets = test: Insulin release and content of human islets; type: cell-based; conditions: 33.3 mM glucose or IL-1β, 4 days
Description: (§1) Islet isolation and culture. Islets were isolated from pancreases of eleven organ donors at the Department of Surgery, University of Geneva Medical Center, as described (32-34). The islet purity was >95%, as judged by dithizone staining (if this degree of purity was not primarily achieved by routine isolation, islets were handpicked). […] For long-term in vitro studies, the islets were cultured on extracellular matrix-coated plates derived from bovine corneal endothelial cells (Novamed Ltd., Jerusalem, Israel), allowing the cells to attach to the dishes and spread, preserving their functional integrity (7;35). Islets were cultured in CMRL 1066 medium containing 100 U/ml penicillin, 100 μg/ml streptomycin and 10% fetal calf serum (Gibco, Gaithersburg, Md.), hereinafter referred to as culture medium. Two days after plating, when most islets were attached and began to flatten, the medium was changed to culture medium containing 5.5, 11.1 or 33.3 mM glucose. In some experiments, islets were additionally cultured with 2 ng/ml recombinant human IL-1β, 1000 U/ml recombinant human IFNγ (ReproTech EC Ltd, London, UK), 500 ng/ml IL-1β receptor antagonist (IL-1Ra) (R&D Systems Inc., Minneapolis, Minn.), 1 ng/ml membrane bound Fas-ligand (FasL) (36) (upstate biotechnology, Lake Placid, N.Y.) or with 100 μM pyrrolidinedithiocarbamate (PDTC; Sigma; 2 h per 2 d of culture).
Insulin release and content. To determine acute insulin release in response to glucose stimulation, islets were washed in RPMI 1640 medium with 10% FCS and containing 3.3 mM glucose and pre-incubated for 1 h in the same medium. The medium was then discarded and replaced with fresh medium containing 3.3 mM glucose for 1 h for basal secretion, followed by an additional 1 h incubation in medium containing 16.7 mM glucose. Incubates were collected and frozen for insulin assays. […] Insulin was determined by a human insulin RIA kit (CIS bio international, Gif-Sur-Yvette, France).

type II IL-1R = molecular target: T1, type II IL-1R (Homo sapiens, UniProt P27930); conditions: read-out: Kd, binding to type II IL-1R; cited from earlier work
T1 sequence (P27930 14-398): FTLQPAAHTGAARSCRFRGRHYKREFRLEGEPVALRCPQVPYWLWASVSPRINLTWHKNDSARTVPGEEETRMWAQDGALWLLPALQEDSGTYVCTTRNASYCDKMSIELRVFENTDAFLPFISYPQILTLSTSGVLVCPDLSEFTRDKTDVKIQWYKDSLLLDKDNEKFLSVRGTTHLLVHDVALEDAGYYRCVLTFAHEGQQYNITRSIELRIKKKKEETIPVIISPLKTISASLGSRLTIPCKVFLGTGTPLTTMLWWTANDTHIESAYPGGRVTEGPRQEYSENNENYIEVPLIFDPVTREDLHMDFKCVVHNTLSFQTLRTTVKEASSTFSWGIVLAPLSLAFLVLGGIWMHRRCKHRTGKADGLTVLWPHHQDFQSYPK

[2] = in vivo; cited from earlier work
human islets β-cells = test: β-cell apoptosis (TUNEL) and necrosis (propidium iodide) in human islets; type: cell-based; conditions: 33 mM glucose + exogenous FasL
Description: as §1
β-cell apoptosis. The free 3-OH strand breaks resulting from DNA degradation were detected by the terminal deoxynucleotidyl transferase-mediated dUTP nick-end labeling (TUNEL) technique (38). After washing with PBS, cultured islets were fixed in 4% paraformaldehyde (30 min, room temperature) followed by permeabilisation with 0.5% triton X-100 (4 min, room temperature). The TUNEL assay was performed according to the manufacturer's instructions (In Situ Cell Death Detection Kit, AP; Boehringer Mannheim, Germany). […] The samples were immediately evaluated by fluorescence microscopy for positively stained […] nuclei.

[3] = high-energy diet 8 days, 0.4 g/kg phlorizin every 12 h

O=C(CCc1ccc(O)cc1)c1c(O)cc(O)cc1O[C@@H]1O[C@H](CO)[C@@H](O)[C@H](O)[C@H]1O [phlorizin]
IL-1β expression in β-cells [1, 3]: prevented IL-1β expression | blood glucose (in words) [1, 3]: Normalization of blood glucose | insulin stores of islets [1, 3]: restored insulin stores | blood glucose ([1]; high-energy diet for 8 days with injections of phlorizin): 5.6 mM

Interleukin-1β [IL-1β]
iNOS mRNA or protein expression (iNOS): Neither 33 mM glucose nor IL-1β alone induced iNOS mRNA | acute glucose-stimulated insulin release after chronic exposure (human islets): abolished acute glucose-stimulated insulin release | Kd (type II IL-1R): 0.3 to 2 nM

anakinra
half-life [2]: 4 to 6 h

B1: FasL: membrane bound Fas-ligand (protein, UniProt P48023 1-281, looked up)
chain: MQQPFNYPYPQIYWVDSSASSPWAPPGTVLPCPTSVPRRPGQRRPPPPPPPPPLPPPPPPPPLPPLPLPPLKKRGNHSTGLCLLVMFFMVLVALVGLGLGMFQLFHLQKELAELRESTSQMHTASSLEKQIGHPSPPPEKKELRKVAHLTGKSNSRSMPLEWEDTYGIVLLSGVKYKKGGLVINETGLYFVYSKVYFRGQSCNNLPLSHKVYMRNSKYPQDLVMMEGKMMSYCTTGQMWARSSYLGAVFNLTSADHLYVNVSELSLVNFEESQTFFGLYKL
modifications: full-length
increase of TUNEL-positive β-cells compared to control at 5.5 mM glucose (human islets β-cells): 3.0+/−0.4 fold
